Results taken from publication PMC6199744, “Development of Chemical Proteomics for the Folateome and Analysis of the Kinetoplastid Folateome” (ACS Infectious Diseases, 2018).
Like-named read-outs stand apart in the source and are kept apart here.

Key:
Type in all cases: binding
[1] = biological target: T1, HeLa cell extract proteins (Homo sapiens, UniProt Q99570)
T1 construct: endogenous in cells; host or cells: HeLa cell extract

[2] = biological target: T2, HeLa cell extract proteins (Homo sapiens, UniProt P33991)
T2 construct: endogenous in cells; host or cells: HeLa cell extract
T2 sequence (P33991 1-863): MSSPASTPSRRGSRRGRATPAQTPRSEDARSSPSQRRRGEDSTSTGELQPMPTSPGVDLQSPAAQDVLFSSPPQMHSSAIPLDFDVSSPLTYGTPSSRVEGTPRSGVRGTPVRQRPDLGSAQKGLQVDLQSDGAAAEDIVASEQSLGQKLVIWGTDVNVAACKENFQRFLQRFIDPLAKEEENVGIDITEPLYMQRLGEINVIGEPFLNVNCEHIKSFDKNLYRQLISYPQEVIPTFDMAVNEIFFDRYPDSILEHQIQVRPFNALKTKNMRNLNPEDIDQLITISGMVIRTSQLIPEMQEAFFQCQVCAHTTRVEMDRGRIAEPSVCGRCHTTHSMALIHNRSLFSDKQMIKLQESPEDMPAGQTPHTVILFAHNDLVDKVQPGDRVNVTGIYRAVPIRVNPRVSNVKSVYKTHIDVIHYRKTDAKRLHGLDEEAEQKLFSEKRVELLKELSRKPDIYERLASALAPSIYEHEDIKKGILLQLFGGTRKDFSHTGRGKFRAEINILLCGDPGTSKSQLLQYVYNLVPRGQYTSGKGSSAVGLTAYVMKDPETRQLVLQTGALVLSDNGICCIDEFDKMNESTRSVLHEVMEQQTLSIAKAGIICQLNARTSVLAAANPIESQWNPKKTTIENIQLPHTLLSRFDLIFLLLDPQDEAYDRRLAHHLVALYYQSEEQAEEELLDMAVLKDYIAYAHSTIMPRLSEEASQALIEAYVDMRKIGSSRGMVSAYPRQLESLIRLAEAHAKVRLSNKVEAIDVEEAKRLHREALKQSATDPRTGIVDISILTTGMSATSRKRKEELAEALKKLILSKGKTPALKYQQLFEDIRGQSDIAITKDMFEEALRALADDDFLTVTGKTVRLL

[3] = biological target: T3, HeLa cell extract proteins (Homo sapiens, UniProt O15260)
T3 construct: endogenous in cells; host or cells: HeLa cell extract
T3 sequence (O15260 whole entry): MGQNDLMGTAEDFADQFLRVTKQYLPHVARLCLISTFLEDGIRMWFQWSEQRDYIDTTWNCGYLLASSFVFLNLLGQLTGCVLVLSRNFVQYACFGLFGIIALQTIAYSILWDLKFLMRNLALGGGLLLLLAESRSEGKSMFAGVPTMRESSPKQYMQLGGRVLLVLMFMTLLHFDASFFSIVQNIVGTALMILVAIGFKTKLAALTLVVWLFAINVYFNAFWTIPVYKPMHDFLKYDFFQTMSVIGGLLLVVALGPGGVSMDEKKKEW

[4] = biological target: T4, HeLa cell extract proteins (Homo sapiens, UniProt Q93074)
T4 construct: endogenous in cells; host or cells: HeLa cell extract

[5] = biological target: T5, HeLa cell extract proteins (Homo sapiens, UniProt Q9NQR4)
T5 construct: endogenous in cells; host or cells: HeLa cell extract
T5 sequence (Q9NQR4 1-276): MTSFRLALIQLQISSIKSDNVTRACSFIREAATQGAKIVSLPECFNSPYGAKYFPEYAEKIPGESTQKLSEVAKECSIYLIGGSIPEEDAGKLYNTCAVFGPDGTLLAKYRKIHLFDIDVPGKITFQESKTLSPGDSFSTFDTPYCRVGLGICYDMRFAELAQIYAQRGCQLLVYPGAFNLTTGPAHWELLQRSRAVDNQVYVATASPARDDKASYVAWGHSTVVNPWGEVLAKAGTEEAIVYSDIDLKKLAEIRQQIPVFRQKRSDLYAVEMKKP

[6] = biological target: T6, HeLa cell extract proteins (Homo sapiens, UniProt O95486)
T6 construct: endogenous in cells; host or cells: HeLa cell extract
T6 sequence (O95486 1-1093): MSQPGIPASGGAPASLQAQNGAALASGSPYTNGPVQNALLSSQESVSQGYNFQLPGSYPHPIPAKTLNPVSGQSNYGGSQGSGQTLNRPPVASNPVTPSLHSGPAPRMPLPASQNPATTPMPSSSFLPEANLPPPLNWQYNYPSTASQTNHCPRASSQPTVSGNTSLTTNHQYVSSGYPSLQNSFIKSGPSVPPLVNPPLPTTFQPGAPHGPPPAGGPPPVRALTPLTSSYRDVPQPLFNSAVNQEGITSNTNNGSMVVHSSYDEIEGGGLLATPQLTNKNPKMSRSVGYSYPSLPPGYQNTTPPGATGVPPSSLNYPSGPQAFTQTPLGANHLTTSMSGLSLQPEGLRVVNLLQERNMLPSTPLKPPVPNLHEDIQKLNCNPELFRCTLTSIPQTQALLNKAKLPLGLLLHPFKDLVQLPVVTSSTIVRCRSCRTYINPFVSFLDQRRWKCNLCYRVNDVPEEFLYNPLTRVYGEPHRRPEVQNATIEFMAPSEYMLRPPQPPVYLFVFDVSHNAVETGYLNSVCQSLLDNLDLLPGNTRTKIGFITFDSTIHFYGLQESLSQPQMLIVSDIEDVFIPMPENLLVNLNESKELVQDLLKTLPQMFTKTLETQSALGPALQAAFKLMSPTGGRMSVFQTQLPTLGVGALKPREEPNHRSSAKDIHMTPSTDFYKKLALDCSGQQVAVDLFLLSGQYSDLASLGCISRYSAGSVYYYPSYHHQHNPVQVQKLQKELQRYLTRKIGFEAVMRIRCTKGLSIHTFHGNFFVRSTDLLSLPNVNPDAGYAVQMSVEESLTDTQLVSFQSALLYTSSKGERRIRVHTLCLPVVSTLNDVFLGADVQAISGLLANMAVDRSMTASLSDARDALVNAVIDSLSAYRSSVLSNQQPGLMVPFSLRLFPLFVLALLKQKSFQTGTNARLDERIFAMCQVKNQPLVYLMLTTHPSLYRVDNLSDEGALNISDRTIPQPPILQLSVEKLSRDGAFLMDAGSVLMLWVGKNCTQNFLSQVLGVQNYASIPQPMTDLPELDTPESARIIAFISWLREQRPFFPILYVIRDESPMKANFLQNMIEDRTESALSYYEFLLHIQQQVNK

[7] = biological target: T7, HeLa cell extract proteins (Homo sapiens, UniProt O94822)
T7 construct: endogenous in cells; host or cells: HeLa cell extract
T7 sequence (O94822 whole entry): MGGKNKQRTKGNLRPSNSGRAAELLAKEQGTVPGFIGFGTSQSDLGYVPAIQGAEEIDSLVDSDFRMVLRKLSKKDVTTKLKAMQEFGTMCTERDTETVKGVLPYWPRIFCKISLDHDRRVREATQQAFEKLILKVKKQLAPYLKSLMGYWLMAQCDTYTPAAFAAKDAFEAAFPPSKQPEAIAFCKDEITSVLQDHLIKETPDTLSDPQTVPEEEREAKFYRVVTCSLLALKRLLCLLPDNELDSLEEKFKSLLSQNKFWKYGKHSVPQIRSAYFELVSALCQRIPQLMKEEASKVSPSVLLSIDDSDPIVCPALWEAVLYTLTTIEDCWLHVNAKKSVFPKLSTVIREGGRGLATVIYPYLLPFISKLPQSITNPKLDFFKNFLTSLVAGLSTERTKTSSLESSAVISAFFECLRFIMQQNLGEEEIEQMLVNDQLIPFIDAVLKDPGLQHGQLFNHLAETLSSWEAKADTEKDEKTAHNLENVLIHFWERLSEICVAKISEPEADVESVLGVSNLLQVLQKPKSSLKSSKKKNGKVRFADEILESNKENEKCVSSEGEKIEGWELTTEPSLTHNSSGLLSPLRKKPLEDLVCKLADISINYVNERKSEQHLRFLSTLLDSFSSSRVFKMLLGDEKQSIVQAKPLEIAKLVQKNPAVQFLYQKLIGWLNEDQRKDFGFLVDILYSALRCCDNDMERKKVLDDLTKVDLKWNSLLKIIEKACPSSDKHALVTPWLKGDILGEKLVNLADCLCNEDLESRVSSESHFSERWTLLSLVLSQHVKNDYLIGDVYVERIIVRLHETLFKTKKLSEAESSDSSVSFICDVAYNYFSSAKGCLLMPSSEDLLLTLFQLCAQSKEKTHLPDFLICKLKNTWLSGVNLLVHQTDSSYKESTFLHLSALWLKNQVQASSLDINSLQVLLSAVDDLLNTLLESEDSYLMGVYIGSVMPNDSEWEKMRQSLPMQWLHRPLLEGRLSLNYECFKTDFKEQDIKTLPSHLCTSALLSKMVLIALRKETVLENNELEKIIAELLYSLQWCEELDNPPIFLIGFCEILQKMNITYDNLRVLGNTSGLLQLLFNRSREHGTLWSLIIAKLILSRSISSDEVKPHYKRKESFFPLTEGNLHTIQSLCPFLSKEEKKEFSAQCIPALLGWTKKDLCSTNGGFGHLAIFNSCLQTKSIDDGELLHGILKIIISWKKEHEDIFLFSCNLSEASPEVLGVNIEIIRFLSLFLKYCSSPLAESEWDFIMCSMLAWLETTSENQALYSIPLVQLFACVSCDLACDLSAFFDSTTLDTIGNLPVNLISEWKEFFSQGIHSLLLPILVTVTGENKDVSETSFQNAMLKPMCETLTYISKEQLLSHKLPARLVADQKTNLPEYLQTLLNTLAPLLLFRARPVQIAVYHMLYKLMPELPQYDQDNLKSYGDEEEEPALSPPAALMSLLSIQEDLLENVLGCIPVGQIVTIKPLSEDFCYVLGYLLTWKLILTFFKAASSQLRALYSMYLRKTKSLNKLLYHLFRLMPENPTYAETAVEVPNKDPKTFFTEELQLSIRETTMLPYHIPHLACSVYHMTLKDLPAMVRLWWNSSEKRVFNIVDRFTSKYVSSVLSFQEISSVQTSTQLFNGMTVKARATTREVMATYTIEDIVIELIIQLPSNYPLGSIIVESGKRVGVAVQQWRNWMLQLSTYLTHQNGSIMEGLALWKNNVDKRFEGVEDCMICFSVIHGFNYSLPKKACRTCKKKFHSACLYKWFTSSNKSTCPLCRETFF

[8] = biological target: T8, HeLa cell extract proteins (Homo sapiens, UniProt P26599)
T8 construct: endogenous in cells; host or cells: HeLa cell extract
T8 sequence (P26599 whole entry): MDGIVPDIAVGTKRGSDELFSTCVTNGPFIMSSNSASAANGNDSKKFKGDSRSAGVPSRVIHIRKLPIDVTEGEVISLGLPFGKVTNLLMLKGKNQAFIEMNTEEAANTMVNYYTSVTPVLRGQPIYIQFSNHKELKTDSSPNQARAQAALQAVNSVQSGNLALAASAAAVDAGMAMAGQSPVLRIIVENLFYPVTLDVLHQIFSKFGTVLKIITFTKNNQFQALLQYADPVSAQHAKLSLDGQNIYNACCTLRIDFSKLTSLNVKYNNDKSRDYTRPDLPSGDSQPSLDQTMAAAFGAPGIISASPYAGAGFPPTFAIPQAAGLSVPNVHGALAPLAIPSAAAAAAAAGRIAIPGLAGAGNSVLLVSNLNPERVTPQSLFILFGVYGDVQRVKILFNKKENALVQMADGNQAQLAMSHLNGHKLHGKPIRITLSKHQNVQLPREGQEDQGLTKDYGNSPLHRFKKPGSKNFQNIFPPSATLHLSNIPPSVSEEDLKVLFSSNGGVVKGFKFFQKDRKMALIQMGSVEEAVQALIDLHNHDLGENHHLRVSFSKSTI

T1 sequence (Q99570 whole entry): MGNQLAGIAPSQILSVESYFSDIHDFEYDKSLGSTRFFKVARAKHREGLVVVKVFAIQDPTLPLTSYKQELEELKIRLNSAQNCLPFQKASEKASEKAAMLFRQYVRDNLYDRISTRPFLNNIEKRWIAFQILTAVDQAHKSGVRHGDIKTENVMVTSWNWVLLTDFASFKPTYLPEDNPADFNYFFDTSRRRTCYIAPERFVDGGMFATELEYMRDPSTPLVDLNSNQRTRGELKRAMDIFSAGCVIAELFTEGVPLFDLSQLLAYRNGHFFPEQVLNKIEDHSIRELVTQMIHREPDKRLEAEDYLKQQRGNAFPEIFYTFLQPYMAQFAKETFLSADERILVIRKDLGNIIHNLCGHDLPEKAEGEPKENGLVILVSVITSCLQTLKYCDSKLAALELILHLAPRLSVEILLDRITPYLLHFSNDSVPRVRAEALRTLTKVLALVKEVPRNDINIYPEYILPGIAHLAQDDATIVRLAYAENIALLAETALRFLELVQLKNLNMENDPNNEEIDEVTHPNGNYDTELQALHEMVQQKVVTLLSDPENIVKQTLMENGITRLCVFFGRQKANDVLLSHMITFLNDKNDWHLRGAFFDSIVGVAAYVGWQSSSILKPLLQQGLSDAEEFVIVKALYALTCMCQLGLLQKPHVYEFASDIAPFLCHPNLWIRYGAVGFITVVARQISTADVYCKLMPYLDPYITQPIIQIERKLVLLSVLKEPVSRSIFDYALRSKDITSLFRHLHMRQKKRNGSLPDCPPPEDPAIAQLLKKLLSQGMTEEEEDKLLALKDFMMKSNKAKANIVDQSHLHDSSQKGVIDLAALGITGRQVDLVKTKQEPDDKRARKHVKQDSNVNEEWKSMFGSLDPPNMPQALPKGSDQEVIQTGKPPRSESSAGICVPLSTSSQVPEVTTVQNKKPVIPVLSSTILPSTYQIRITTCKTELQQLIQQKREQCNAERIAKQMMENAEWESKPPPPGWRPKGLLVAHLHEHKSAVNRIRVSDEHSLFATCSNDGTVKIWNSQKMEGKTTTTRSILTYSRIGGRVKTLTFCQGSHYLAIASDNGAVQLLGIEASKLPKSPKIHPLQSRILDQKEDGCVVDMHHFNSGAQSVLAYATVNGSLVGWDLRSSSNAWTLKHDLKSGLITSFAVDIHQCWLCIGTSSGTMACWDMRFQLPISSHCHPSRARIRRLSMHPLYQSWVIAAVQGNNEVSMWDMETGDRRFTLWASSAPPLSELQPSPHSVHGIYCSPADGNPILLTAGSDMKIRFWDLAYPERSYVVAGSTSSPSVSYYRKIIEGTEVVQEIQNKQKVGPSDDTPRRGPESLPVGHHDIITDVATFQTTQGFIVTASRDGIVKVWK

Nc1nc2c(c(=O)[nH]1)N(C=O)C(CNc1ccc(C(=O)N[C@@H](CCC(=O)O)C(=O)O)cc1)CN2 (some centres unmarked) [LEU, leucovorin]
fold changes relative to vehicle control ([1]; HeLa, protein PIK3R4): 0.97 | fold changes relative to vehicle control ([2]; protein MCM4, HeLa): 0.87 | fold changes relative to vehicle control ([3]; HeLa, captured protein SURF4): 0.86 | fold changes relative to vehicle control ([4]; HeLa, protein MED12): 1.14 | fold changes relative to vehicle control ([5]; HeLa, captured protein NIT2): 1.04 | fold changes relative to vehicle control ([6]; HeLa, protein SEC24A): 1.02 | fold changes relative to vehicle control ([7]; HeLa, captured protein RNF160): 1.1 | fold changes relative to vehicle control ([8]; HeLa, protein PTBP1): 0.98

NCCCNc1ccc(C(=O)NC(CCC(=O)O)C(=O)O)cc1 (centres unmarked) [compound 7]
fold changes relative to vehicle control ([1]; HeLa, protein PIK3R4): 1.08 | fold changes relative to vehicle control ([2]; protein MCM4, HeLa): 0.93 | fold changes relative to vehicle control ([3]; HeLa, captured protein SURF4): 0.92 | fold changes relative to vehicle control ([4]; HeLa, protein MED12): 1.21 | fold changes relative to vehicle control ([5]; HeLa, captured protein NIT2): 0.96 | fold changes relative to vehicle control ([6]; HeLa, protein SEC24A): 1.01 | fold changes relative to vehicle control ([7]; HeLa, captured protein RNF160): 1.17 | fold changes relative to vehicle control ([8]; HeLa, protein PTBP1): 1.05

CCCCCCOc1cccc(Cc2cnc(N)nc2N)c1 [compound 2]
fold changes relative to vehicle control ([1]; captured protein PIK3R4, HeLa): 1.07 | fold changes relative to vehicle control ([2]; protein MCM4, HeLa): 1.59 | fold changes relative to vehicle control ([3]; captured protein SURF4, HeLa): 1 | fold changes relative to vehicle control ([4]; captured protein MED12, HeLa): 0.94 | fold changes relative to vehicle control ([5]; protein NIT2, HeLa): 1.12 | fold changes relative to vehicle control ([6]; protein SEC24A, HeLa): 1.44 | fold changes relative to vehicle control ([7]; captured protein RNF160, HeLa): 1.08 | fold changes relative to vehicle control ([8]; protein PTBP1, HeLa): 1.55

CCCCCCOc1ccc(Cc2cnc(N)nc2N)cc1 [compound 1]
fold changes relative to vehicle control ([1]; captured protein PIK3R4, HeLa): 1.03 | fold changes relative to vehicle control ([2]; protein MCM4, HeLa): 1.11 | fold changes relative to vehicle control ([3]; captured protein SURF4, HeLa): 0.9 | fold changes relative to vehicle control ([4]; captured protein MED12, HeLa): 1.01 | fold changes relative to vehicle control ([5]; protein NIT2, HeLa): 0.99 | fold changes relative to vehicle control ([6]; protein SEC24A, HeLa): 1.15 | fold changes relative to vehicle control ([7]; captured protein RNF160, HeLa): 1.01 | fold changes relative to vehicle control ([8]; protein PTBP1, HeLa): 0.97

Nc1nc2cccc(-c3ccccc3)c2n1Cc1ccc(Cl)c(Cl)c1 [compound 3]
fold changes relative to vehicle control ([1]; captured protein PIK3R4, HeLa): 0.95 | fold changes relative to vehicle control ([2]; protein MCM4, HeLa): 0.9 | fold changes relative to vehicle control ([3]; captured protein SURF4, HeLa): 1.03 | fold changes relative to vehicle control ([4]; captured protein MED12, HeLa): 1.14 | fold changes relative to vehicle control ([5]; protein NIT2, HeLa): 0.84 | fold changes relative to vehicle control ([6]; protein SEC24A, HeLa): 1.03 | fold changes relative to vehicle control ([7]; captured protein RNF160, HeLa): 1.13 | fold changes relative to vehicle control ([8]; protein PTBP1, HeLa): 1.08

NCCOCCOCC(=O)Nc1nc2ncc(CNc3ccc(C(=O)NC(CCC(=O)O)C(=O)O)cc3)nc2c(=O)[nH]1 (centres unmarked) [compound 6]
fold changes relative to vehicle control ([1]; HeLa, protein PIK3R4): 1.2 | fold changes relative to vehicle control ([2]; protein MCM4, HeLa): 1.08 | fold changes relative to vehicle control ([3]; HeLa, captured protein SURF4): 0.95 | fold changes relative to vehicle control ([4]; HeLa, protein MED12): 1.21 | fold changes relative to vehicle control ([5]; HeLa, captured protein NIT2): 0.84 | fold changes relative to vehicle control ([6]; HeLa, protein SEC24A): 1.03 | fold changes relative to vehicle control ([7]; HeLa, captured protein RNF160): 1.17 | fold changes relative to vehicle control ([8]; HeLa, protein PTBP1): 1.03

Nc1nc2[nH]cc(CCc3ccc(C(=O)N[C@@H](CCC(=O)O)C(=O)O)cc3)c2c(=O)[nH]1 [PTX, pemetrexed]
fold changes relative to vehicle control [1]: 1.08 | fold changes relative to vehicle control [2]: 0.96 | fold changes relative to vehicle control [3]: 0.9 | fold changes relative to vehicle control [4]: 1 | fold changes relative to vehicle control [5]: 0.89 | fold changes relative to vehicle control [6]: 1.03 | fold changes relative to vehicle control [7]: 1.09 | fold changes relative to vehicle control [8]: 0.95
